Source: patent publication US10363239B2, “Method for inhibiting growth of cancer cells” (Pain Therapeutics, Inc., priority 2013, dated 2019)

How the values were obtained:
Type in all cases: cell-based, human
melanoma cells = experiment: [3H]thymidine incorporation; settings: 0.1-5 nM; 96 hours
Method: (§1) The effect of Compound C0105 on cell proliferation was determined by the level of [^3H]thymidine incorporation in glioblastoma, melanoma and small-cell lung carcinoma cells. Cells contacted with vehicle or 0.1-5 nM Compound C0105 were incubated with 5 μCi/ml of [^3H]thymidine for 96-hours. Cells were washed and the cell content of [^3H]thymidine was quantified using scintillation spectrometry. […] N=4. **p<0.05, *p<0.01 compared to vehicle (open bars).

[1] = tested on: small-cell lung carcinoma cells; experiment: [3H]thymidine incorporation; settings: 0.1-5 nM; 96 hours
Method: as §1

glioblastoma cells = experiment: [3H]thymidine incorporation; settings: 0.1-5 nM; 96 hours
Method: as §1

[2] = tested on: pS2448mTOR, pS473Akt, pY/pT-ERK2 in HMEC; experiment: Activated (phosphorylated) mTOR, Akt and ERK2 levels (immunoprecipitation, Western blotting); settings: 0.1-5 nM; 4 days
Method: (§2) Cells were treated with vehicle and 0.1-5 nM C0105 for 4 days. Cells were washed, solubilized and the resultant cell lysate was immunoprecipitated with anti-mTOR, -Akt or -ERK2. The levels of pS^2448mTOR, pS^473Akt, pY/pTERK2 in the respective anti-mTOR, -Akt, and -ERK2 immunoprecipitates were determined by Western blotting (not shown). The density of protein bands was measured by densitometric scanning. […] FIGS. 13C and 13G and FIGS. 13D and 13H show similarly obtained data for immunoprecipitates from HMEC and HPEC cells, respectively. Cell treatments and data handling were as discussed in FIG. 12.
(§3) To study the effect of Compound C0105 on pS^2152FLNA levels, FLNA linkages to key regulators including protein phosphatases as well as activated Akt (pS^473-, pT^308-Akt), mTOR ([…]) and ERK (pY/pT-ERK) levels, the cancer and normal cells were cultured to approximately 90% confluency and treated with vehicle or varying concentrations of Compound C0105. The cells were washed with warm phosphate-buffered saline (PBS), pH 7.2, dissociated, homogenized by sonication and solubilized using 0.5% NP-40 (nonoxynol 40), 0.2% sodium cholate and 0.5% digitonin for 1 hour at 4° C.
(§4) The cell lysates were diluted 5-fold with immunoprecipitation buffer and immunoprecipitated with anti-FLNA, -Akt, -mTOR and -ERK2 as described previously [Talbot et al., J Clin Inv 122(4):1-23 (2012); Wang et al., J Neurosci 32(29):9773-9784 (2012)]. The levels of FLNA linkages, activated phosphorylated Akt (pS^473 and pT^308), phosphorylated mTOR (pS^2448) and phosphorylated ERK2 (pY/pT) were determined in anti-FLNA, -Akt, -mTOR and -ERK2 immunoprecipitates by Western blotting with appropriate antibodies directed against PTEN, PP2A, K-RAS, ras-GAP (FLNA linkages), pS^473Akt, pT^308Akt, pS^2448mTOR and pY/pT ERK2 (activation of Akt, mTOR and ERK2).

[3] = tested on: pS2448mTOR, pS473Akt, pY/pT-ERK2 in MiaPaCa2 cells; experiment: as above; settings: 0.1-5 nM; 4 days
Method: as §2, §3, §4

[4] = tested on: pS2448mTOR, pS473Akt, pY/pT-ERK2 in HTB-22 cells; experiment: as above; settings: 0.1-5 nM; 4 days
Method: as §2, §3, §4

[5] = tested on: pS2448mTOR, pS473Akt, pY/pT-ERK2 in HPEC; experiment: as above; settings: 0.1-5 nM; 4 days
Method: as §2, §3, §4

melanoma cells (A2058) = experiment: [3H]glucose uptake
Method: (§5) FIG. 1A through FIG. 1M illustrate the effects of various FLNA-binding compounds on glucose uptake in glioblastoma, melanoma, breast and pancreatic cancer cell lines, along with appropriate non-cancerous primary cell controls. Cells were grown in the absence or presence of 0.1-5 nM indicated compounds for 4 days. Following brief washes with PBS, cells were serum-deprived for 4 hours and then incubated in oxygenated Kreb's Ringer containing 0.1 μCi [^3H]glucose for 2 hours under constant oxygenation. The reaction was terminated by removal of the incubation medium, and cells were washed and scraped off to determine the amounts of [^3H]glucose in cells by scintillation spectrometry. […] N=5-6. […] . […] . To determine the effect of Compound C0105 on glucose utilization, the cancer and primary normal cells were plated extremely thinly (10%). Once cells attached, Compound C0105 was added at 0.1, 0.5, 1 or 5 nM in the medium twice daily (6 hours apart) for 4 days. The cells were serum-deprived (glucose deprived) for 2 hours. Cells were then rinsed with 1 ml PBS and glucose uptake was assessed by contacting the cells with [^3H]glucose (0.01 uCi/l ml) in Kreb's Ringer for 2 hours. Cells were then rinsed with 1 ml PBS 3 times, scraped off and their glucose content counted by liquid scintillation spectrophotometry.
(§6) Both glioblastoma and melanoma cells were plated extremely thinly. Once cells attached, Compound C0105 was added at 0.1, 0.5, 1 and 5 nM, whereas the other compounds were present at 1 and 5 nM in the medium twice daily (6 hours apart) for 4 days. The cells were serum-deprived (glucose deprived) for 2 hours. Cells were then rinsed with 1 ml PBS and glucose uptake was assessed by contacting the cells with [3H]glucose (0.01 uCi/l ml) of Kreb's Ringer for 2 hours. Cells were then rinsed with 1 ml PBS 3 times, scraped off and their glucose contents counted by liquid scintillation spectrophotometry.

[6] = tested on: glioblastoma cells (U-87 MG); experiment: [3H]glucose uptake
Method: as §5, §6

primary lung fibroblasts = experiment: [3H]glucose uptake; settings: C0105 0.1-5 nM, other compounds 1 or 5 nM; 4 days
Method: as §5, §6

[7] = tested on: pS2448mTOR, pS473Akt, pY/pT-ERK2 in melanoma cells; experiment: Activated (phosphorylated) mTOR, Akt and ERK2 levels (immunoprecipitation, Western blotting); settings: 0.1-5 nM; 4 days
Method: FIG. 11A through FIG. 11C illustrate the effect of contact with Compound C0105 on the levels of activated (phosphorylated) mTOR (pS^2448mTOR), Akt (pS^473Akt) and ERK2 (pY/pT-ERK2) in melanoma cells. Cells were treated with vehicle and 0.1-5 nM Compound C0105 for 4 days. Cells were washed, solubilized and the resultant cell lysate was immunoprecipitated with anti-mTOR, -Akt or -ERK2. The levels of pS^2448mTOR, pS^473Akt, pY/pTERK2 in the respective anti-mTOR, -Akt, and -ERK2 immunoprecipitates were determined by Western blotting. The density of protein bands was measured by densitometric scanning. […] N=4. *p<0.01 compared to vehicle (open bars). […]
as §4

[8] = C0105 0.1-5 nM, other compounds 1 and 5 nM, twice daily for 4 days

CN1CCC2(CC1)NCC(=O)N2Cc1ccccc1 [Compound C0105]
Cell proliferation by [3H]thymidine incorporation (melanoma cells): reduces glioblastoma, melanoma and small-cell lung carcinoma cell proliferation
Cell proliferation by [3H]thymidine incorporation [1]: reduces glioblastoma, melanoma and small-cell lung carcinoma cell proliferation
Cell proliferation by [3H]thymidine incorporation (glioblastoma cells): reduces glioblastoma, melanoma and small-cell lung carcinoma cell proliferation
mTOR, Akt and ERK activation (phosphorylated mTOR, Akt and ERK) [2]: has little effect on mTOR, Akt and ERK activation
mTOR, Akt and ERK activation (phosphorylated mTOR, Akt and ERK) [3]: has little effect on mTOR, Akt and ERK activation
mTOR, Akt and ERK activation (phosphorylated mTOR, Akt and ERK) [4]: has little effect on mTOR, Akt and ERK activation
mTOR, Akt and ERK activation (phosphorylated mTOR, Akt and ERK) [5]: has little effect on mTOR, Akt and ERK activation
Inhibition of glucose uptake (melanoma cells (A2058); 0.1-5 nM, not dose-dependent): about 25%
Glucose utilization (melanoma cells (A2058); [8]): decreased the elevated glucose utilization
Reduction of glucose uptake ([6]; 0.1 nM, 4 days): 25%
Inhibition of glucose uptake, maximal effect ([6]; 1 nM, 4 days): 50%
EC50 ([6]; 4 days, read-out: EC50, inhibition of glucose uptake): ~0.1 nM
Glucose utilization [6, 8]: decreased the elevated glucose utilization
Glucose uptake / glucose content (primary lung fibroblasts): not changed
mTOR, Akt and ERK activation (phosphorylated mTOR, Akt and ERK) [7]: robustly reduces mTOR, Akt and ERK activation
